Measurements from patent publication US20130079345A1, “[…] ACTIVE DISUBSTITUTED TRIAZINE DERIVATIVES” (BAYER INTELLECTUAL PROPERTY GMBH, priority 2010, published 2013).
Counter-ions that a name gives are not always drawn.

Tests used:
[1] = molecular target: T1, CDK9/Cyclin T1 (Homo sapiens, UniProt P50750); assay: LanthaScreen Eu Kinase Binding Assay, CDK9/Cyclin T1; conditions: tracer 236, read-out: Affinity (Kd) CDK9/Cyclin T1
T1 construct: purchased Invitrogen
How it was run: (§1)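 TR-FRET competition binding with Alexa Fluor 647 tracer and Eu-anti-GST antibody; e.g. CDK2/Cyclin A 15 nM with tracer 236 60 nM (working solutions). Kinase buffer: HEPES 20 mM pH 8.0, MgCl2 10 mM, DTT 1 mM, Brij-35 0.01%; 8-point 1:3 series, 1 h at room temperature; Kd from sigmoidal dose-response curves.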

[2] = molecular target: T2, CDK9/Cyclin K (Homo sapiens, UniProt P50750); assay: LanthaScreen Eu Kinase Binding Assay, CDK9/Cyclin K; conditions: tracer 236, read-out: Affinity (Kd) CDK9/Cyclin K
T2 construct: purchased Invitrogen
T2 sequence (P50750 whole entry): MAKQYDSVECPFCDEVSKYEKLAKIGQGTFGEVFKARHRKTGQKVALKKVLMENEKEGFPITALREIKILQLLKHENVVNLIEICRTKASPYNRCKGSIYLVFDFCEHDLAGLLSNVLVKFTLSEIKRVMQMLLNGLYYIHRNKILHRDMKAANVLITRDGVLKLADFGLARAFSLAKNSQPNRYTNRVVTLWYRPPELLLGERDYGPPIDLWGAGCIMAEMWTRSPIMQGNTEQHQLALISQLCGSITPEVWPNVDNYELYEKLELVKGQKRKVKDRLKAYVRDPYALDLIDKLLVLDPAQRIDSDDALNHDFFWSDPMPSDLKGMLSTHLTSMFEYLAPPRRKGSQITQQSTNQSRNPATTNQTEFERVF
T2 sequence (O75909 whole entry partner): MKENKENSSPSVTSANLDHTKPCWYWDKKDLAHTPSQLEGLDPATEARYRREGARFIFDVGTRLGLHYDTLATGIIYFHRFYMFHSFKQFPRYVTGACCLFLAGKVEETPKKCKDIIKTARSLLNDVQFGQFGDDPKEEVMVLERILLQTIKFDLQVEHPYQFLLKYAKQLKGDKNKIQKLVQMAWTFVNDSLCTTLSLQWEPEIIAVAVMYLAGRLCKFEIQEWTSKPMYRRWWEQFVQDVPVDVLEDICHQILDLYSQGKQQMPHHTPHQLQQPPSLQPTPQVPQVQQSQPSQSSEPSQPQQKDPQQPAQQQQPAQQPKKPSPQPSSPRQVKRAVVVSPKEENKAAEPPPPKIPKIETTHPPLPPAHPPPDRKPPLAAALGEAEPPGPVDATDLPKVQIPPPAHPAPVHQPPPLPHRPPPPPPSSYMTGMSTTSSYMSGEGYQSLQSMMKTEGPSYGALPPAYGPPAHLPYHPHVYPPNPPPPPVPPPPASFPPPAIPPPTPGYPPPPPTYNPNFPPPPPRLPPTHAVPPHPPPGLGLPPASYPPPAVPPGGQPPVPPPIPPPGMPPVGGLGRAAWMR
How it was run: as §1

[3] = system: NF-kappaB reporter gene activation in HEK293 cells; assay: NF-kappaB reporter assay; format: cell-based; conditions: Homo sapiens, 20 ng/ml TNF alpha, 5 h
Method: Cells were maintained in RPMI cell culture medium+glutamine (PAN Biotech GmbH, Aidenbach, Germany) supplemented with 10% fetal calf serum (PAA Laboratories GmbH, Pasching, Austria) and grown at 37° C., 5% CO2. HEK293 cells grown to 50% confluence were transfected with the Amaxa® Cell Line Nucleofector® Kit V (Lonza, Basel, Switzerland, catalog #VCA-1003). Transfections were performed according to manufacturer's optimized protocol for transfection of HEK293 cells. In brief, 2×10^5 cells were transfected with 5 μg highly purified plasmid DNA. Cells were transfected with a NF-kappa B reporter plasmid (pNFkBluc), pTALluc for control, or pMAXGFP for transfection control. After transfection, cells were taken up in 500 μL RPMI1640 cell culture medium, incubated for 1 h at 37° C., and 4.5 ml DMEM without phenol red were added per transfection. Transfected cells were seeded in 96 well plates (Greiner Bio-One, Frickenhausen, Germany, catalog #655098) with 100 μL cell suspension per well and incubated for 48 h. To each well, 100 μL DMEM with 2× concentrated compound diluted from 10 mM DMSO stocks, or 100 μL DMEM with 0.4% DMSO for control wells, was added. The compounds of general formula (I) summarized in Table 6 were used in this assay. Cells were stimulated with 20 ng/ml TNF alpha, and plates were incubated for 5 h at 37° C./5% CO2. Cell culture supernatants were removed to leave 100 μl medium per well, followed by addition of 100 μl Bright Glo luciferase assay reagent (Promega, Madison, Wis., USA, catalog #E2620), and shaking for 5 minutes in the dark. Luminescence was measured with a Victor Photospectrometer (Perkin Elmer, Waltham, Mass., USA). […], values were calculated with the software Excel Fit (IDBS, Guildford, UK) from 2-fold dilution series comprising at least 10 concentrations in duplicates.

[4] = molecular target: T3, CDK7/CyclinH/Mat1 (Homo sapiens, UniProt P50613); assay: LanthaScreen Eu Kinase Binding Assay, CDK7; conditions: tracer 236, read-out: Affinity (Kd) CDK7
T3 construct: purchased Carna Biosciences
T3 sequence (P50613 whole entry): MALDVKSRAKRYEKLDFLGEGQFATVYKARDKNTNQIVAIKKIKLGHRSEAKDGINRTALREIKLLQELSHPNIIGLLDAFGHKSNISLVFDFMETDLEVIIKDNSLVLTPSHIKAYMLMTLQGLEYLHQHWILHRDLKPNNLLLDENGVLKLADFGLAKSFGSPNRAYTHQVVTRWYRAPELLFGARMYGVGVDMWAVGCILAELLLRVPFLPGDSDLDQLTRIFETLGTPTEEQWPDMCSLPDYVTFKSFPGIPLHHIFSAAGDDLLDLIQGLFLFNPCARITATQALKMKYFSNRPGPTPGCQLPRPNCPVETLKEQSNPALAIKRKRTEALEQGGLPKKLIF
T3 sequence (P51946 whole entry partner): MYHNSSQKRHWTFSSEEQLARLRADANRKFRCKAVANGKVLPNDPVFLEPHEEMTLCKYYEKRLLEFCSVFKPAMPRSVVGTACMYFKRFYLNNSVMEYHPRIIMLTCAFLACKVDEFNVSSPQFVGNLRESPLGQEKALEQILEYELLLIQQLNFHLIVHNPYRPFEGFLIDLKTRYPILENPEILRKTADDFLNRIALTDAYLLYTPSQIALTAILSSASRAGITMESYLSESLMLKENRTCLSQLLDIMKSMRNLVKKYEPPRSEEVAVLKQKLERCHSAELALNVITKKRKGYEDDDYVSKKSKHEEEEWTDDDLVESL
T3 sequence (P51948 whole entry partner): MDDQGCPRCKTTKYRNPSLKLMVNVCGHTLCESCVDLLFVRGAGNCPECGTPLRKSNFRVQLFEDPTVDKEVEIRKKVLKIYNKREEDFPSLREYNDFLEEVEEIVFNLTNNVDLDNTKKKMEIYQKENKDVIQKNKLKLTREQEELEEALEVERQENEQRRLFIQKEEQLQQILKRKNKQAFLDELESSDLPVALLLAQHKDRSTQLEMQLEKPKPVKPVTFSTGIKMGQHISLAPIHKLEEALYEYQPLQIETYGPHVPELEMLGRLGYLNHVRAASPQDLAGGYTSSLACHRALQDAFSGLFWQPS
How it was run: as §1

T1 sequence (P50750 whole entry): as the sequence (P50750 whole entry) above
T1 sequence (O60563 whole entry partner): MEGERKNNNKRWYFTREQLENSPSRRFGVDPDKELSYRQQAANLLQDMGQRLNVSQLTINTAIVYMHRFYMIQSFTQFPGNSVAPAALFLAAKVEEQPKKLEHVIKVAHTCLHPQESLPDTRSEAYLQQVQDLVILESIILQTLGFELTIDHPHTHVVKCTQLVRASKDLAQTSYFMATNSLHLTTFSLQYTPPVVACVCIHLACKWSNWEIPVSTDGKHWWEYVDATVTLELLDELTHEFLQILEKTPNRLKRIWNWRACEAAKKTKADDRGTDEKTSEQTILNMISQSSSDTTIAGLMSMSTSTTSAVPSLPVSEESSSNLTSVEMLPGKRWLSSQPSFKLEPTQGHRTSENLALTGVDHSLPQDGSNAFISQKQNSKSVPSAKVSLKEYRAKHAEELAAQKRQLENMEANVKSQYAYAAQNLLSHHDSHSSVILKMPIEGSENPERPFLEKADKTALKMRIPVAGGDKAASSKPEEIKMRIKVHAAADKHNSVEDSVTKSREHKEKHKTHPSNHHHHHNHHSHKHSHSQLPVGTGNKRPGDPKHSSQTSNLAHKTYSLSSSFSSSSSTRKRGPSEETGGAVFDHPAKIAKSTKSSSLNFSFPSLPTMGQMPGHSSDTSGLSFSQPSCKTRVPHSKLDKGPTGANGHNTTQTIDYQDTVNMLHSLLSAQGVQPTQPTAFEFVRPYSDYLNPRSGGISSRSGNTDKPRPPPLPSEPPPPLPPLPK

SMILES | Kd [1] | Kd [2] | IC50 [3] | Kd [4]
COc1ccccc1-c1ncnc(Nc2cccc(CS(N)(=O)=O)c2)n1 [B1′, 3-[(4-(2-Methoxyphenyl)-1,3,5-triazin-2-yl)amino]benzenemethanesulfonamide trifluoroacetic acid salt] | 0.0076 µM | 0.0487 µM | 3.56 µM | –
COc1cc(F)ccc1-c1ncnc(Nc2cccc(CS(N)(=O)=O)c2)n1 [B2′, 1-(3-{[4-(4-fluoro-2-methoxyphenyl)-1,3,5-triazin-2-yl]amino}phenyl)methanesulfonamide hydrochloride] | 0.0056 µM | – | – | –
COc1cc(F)ccc1-c1ncnc(Nc2cccc(CS(N)(=O)=O)c2)n1 [B2″, 1-(3-{[4-(4-fluoro-2-methoxyphenyl)-1,3,5-triazin-2-yl]amino}phenyl)methanesulfonamide trifluoroacetic acid salt] | 0.0066 µM | 0.005 µM | 1.6 µM | –
NS(=O)(=O)Cc1cccc(Nc2ncnc(-c3ccccc3OCc3ccccc3)n2)c1 [B13′, 3-[(4-(2-Benzyloxyphenyl)-1,3,5-triazin-2-yl)amino]benzenemethanesulfonamide trifluoroacetic acid salt] | 0.0055 µM | 0.005 µM | 0.36 µM | –
COc1ccccc1-c1ncnc(Nc2cccc(S(N)(=O)=O)c2)n1 [C1′, 3-[(4-(2-Methoxyphenyl)-1,3,5-triazin-2-yl)amino]benzenesulfonamide trifluoroacetic acid salt] | < 0.005 µM | 0.005 µM | 1.47 µM | > 10 µM
COc1ccccc1-c1ncnc(Nc2cccc(CS(N)(=O)=O)c2)n1 [Compound B1, 3-[(4-(2-Methoxyphenyl)-1,3,5-triazin-2-yl)amino]benzenemethanesulfonamide] | 0.005 µM | – | – | > 10 µM
COc1cc(F)ccc1-c1ncnc(Nc2cccc(CS(N)(=O)=O)c2)n1 [Compound B2, 3-[(4-(4-Fluoro-2-methoxyphenyl)-1,3,5-triazin-2-yl)amino]benzenemethanesulfonamide] | 0.005 µM | – | – | > 10 µM
COc1ccc(F)cc1-c1ncnc(Nc2cccc(CS(N)(=O)=O)c2)n1 [Compound B3, 3-[(4-(5-Fluoro-2-methoxyphenyl)-1,3,5-triazin-2-yl)amino]benzenemethanesulfonamide] | 0.016 µM | 0.005 µM | 2.47 µM | > 10 µM
COc1cccc(F)c1-c1ncnc(Nc2cccc(CS(N)(=O)=O)c2)n1 [Compound B4, 3-[(4-(6-Fluoro-2-methoxyphenyl)-1,3,5-triazin-2-yl)amino]benzenemethanesulfonamide] | 0.054 µM | 0.0209 µM | 9.71 µM | > 10 µM
COc1cc(Cl)ccc1-c1ncnc(Nc2cccc(CS(N)(=O)=O)c2)n1 [Compound B6, 3-[(4-(4-Chloro-2-methoxyphenyl)-1,3,5-triazin-2-yl)amino]benzenemethanesulfonamide] | 0.011 µM | 0.0125 µM | 2.49 µM | > 10 µM
CCOc1ccccc1-c1ncnc(Nc2cccc(CS(N)(=O)=O)c2)n1 [Compound B12, 3-[(4-(2-Ethoxyphenyl)-1,3,5-triazin-2-yl)amino]benzenemethanesulfonamide] | 0.01 µM | 0.0111 µM | 3.67 µM | > 10 µM
NS(=O)(=O)Cc1cccc(Nc2ncnc(-c3ccccc3OCc3ccccc3)n2)c1 [Compound B13, 3-[(4-(2-Benzyloxyphenyl)-1,3,5-triazin-2-yl)amino]benzenemethanesulfonamide] | 0.005 µM | – | – | > 10 µM
NS(=O)(=O)Cc1cccc(Nc2ncnc(-c3ccccc3Oc3ccccc3)n2)c1 [Compound B14, 1-(3-{[4-(2-phenoxyphenyl)-1,3,5-triazin-2-yl]amino}phenyl)methanesulfonamide] | 0.0255 µM | 0.0264 µM | 3.96 µM | > 10 µM
NS(=O)(=O)Cc1cccc(Nc2ncnc(-c3ccccc3OCc3ccncc3)n2)c1 [Compound B16, 3-[(4-(2-((4-Pyridinyl)methoxy)phenyl)-1,3,5-triazin-2-yl)amino]benzenemethanesulfonamide] | < 0.005 µM | 0.0057 µM | 0.96 µM | > 10 µM
COc1cnccc1-c1ncnc(Nc2cccc(CS(N)(=O)=O)c2)n1 [Compound B19, 3-[(4-(3-Methoxypyridin-4-yl)-1,3,5-triazin-2-yl)amino]benzenemethanesulfonamide] | 0.007 µM | 0.0115 µM | 19.9 µM | > 10 µM
COc1ccccc1-c1ncnc(Nc2cccc(CCS(N)(=O)=O)c2)n1 [Compound D1, 2-[3-((4-(2-Methoxyphenyl)-1,3,5-triazin-2-yl)amino)phenyl]ethanesulfonamide] | 0.0328 µM | 0.0995 µM | 4.98 µM | > 10 µM
COc1cc(F)ccc1-c1ncnc(Nc2cccc(CCS(N)(=O)=O)c2)n1 [Compound D2, 2-[3-((4-(4-Fluoro-2-methoxyphenyl)-1,3,5-triazin-2-yl)amino)phenyl]ethanesulfonamide] | 0.0095 µM | 0.005 µM | 1.63 µM | > 10 µM
COc1ccccc1-c1ncnc(Nc2cccc([N+](=O)[O-])c2)n1 [Compound H1, 4-(2-Methoxyphenyl)-N-(3-nitrophenyl)-1,3,5-triazine-2-amine] | 0.0178 µM | 0.0158 µM | 2.67 µM | > 30 µM
COc1ccccc1-c1ncnc(Nc2cccc(NS(C)(=O)=O)c2)n1 [Compound K1, N-[3-((4-(2-Methoxyphenyl)-1,3,5-triazin-2-yl)amino)phenyl]-methanesulfonamide] | 0.0385 µM | 0.0359 µM | 5.52 µM | > 30 µM
CCCS(=O)(=O)Nc1cccc(Nc2ncnc(-c3ccccc3OC)n2)c1 [Compound L1, N-[3-((4-(2-Methoxyphenyl)-1,3,5-triazin-2-yl)amino)phenyl]-propanesulfonamide] | 0.0455 µM | – | 6.53 µM | > 30 µM
COc1ccccc1-c1ncnc(Nc2ccccc2)n1 [Compound P1, 4-(2-Methoxyphenyl)-N-phenyl-1,3,5-triazine-2-amine] | 0.126 µM | – | 18.8 µM | > 30 µM
